Results from patent US20230167088A1, “1-PYRAZINYLPYRAZOLYL-3-OXYALKYL ACIDS AND THEIR DERIVATIVES, AND THEIR USE FOR CONTROL OF UNDESIRED PLANT GROWTH” (BAYER AKTIENGESELLSCHAFT, priority 2020, published 2023).

Legend:
ALOMY = assay: Herbicidal post-emergence action 1a (greenhouse pots, visual rating); format: in vivo, Alopecurus myosuroides; settings: rated visually about 3 weeks after treatment, 100% = plants have died, 0% = like control plants
How it was run: (§1)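 Weeds and crops sown in sandy loam in greenhouse pots were sprayed post-emergence at the one-leaf stage (2–3 weeks after sowing) with WP or EC formulations plus 0.5% additive at 600 l/ha water, 320 and/or 80 g/ha. About 3 weeks later damage was rated visually against untreated controls (0% = no effect, 100% = dead).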

AVEFA [1] = assay: as above; format: in vivo, Avena fatua; settings: rated visually about 3 weeks after treatment, 100% = plants have died, 0% = like control plants
How it was run: as §1

SETVI [2] = assay: as above; format: in vivo, Setaria viridis; settings: rated visually about 3 weeks after treatment, 100% = plants have died, 0% = like control plants
How it was run: as §1

ABUTH = assay: as above; format: in vivo, Abutilon theophrasti; settings: visual rating about 3 weeks after treatment
How it was run: as §1

PHBPU = assay: as above; format: in vivo, Pharbitis purpurea; settings: visual rating about 3 weeks after treatment
How it was run: as §1

AVEFA [3] = assay: Herbicidal pre-emergence action 2a (greenhouse pots, visual scoring); format: in vivo, Avena fatua; settings: dosage 320 g/ha, visual scoring after about 3 weeks
How it was run: (§2)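 Pre-emergence greenhouse pot test: WP or EC formulations sprayed onto covering soil over sown seeds at 600 l/ha water with 0.5% additive, at rates corresponding to 320 g/ha and/or 80 g/ha. Visual % activity versus untreated controls after about 3 weeks (100% = plants dead).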

DIGSA = assay: as above; format: in vivo, Digitaria sanguinalis; settings: dosage 320 g/ha, visual scoring after about 3 weeks
How it was run: as §2

SETVI [4] = assay: as above; format: in vivo, Setaria viridis; settings: dosage 320 g/ha, visual scoring after about 3 weeks vs untreated controls
How it was run: as §2

MATIN = assay: as above; format: in vivo, Matricaria inodora; settings: dosage 320 g/ha, visual scoring after about 3 weeks vs untreated controls
How it was run: as §2

VIOTR = assay: as above; format: in vivo, Viola tricolor; settings: dosage 320 g/ha, visual scoring after about 3 weeks vs untreated controls
How it was run: as §2

VERPE = assay: as above; format: in vivo, Veronica persica; settings: dosage 320 g/ha, visual scoring after about 3 weeks vs untreated controls
How it was run: as §2

harmful plants = assay: Herbicidal pre-emergence action 2a, summary across species; format: in vivo; settings: Tables B1 to B15 (320 g/ha and/or 80 g/ha)
How it was run: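 Pre-emergence greenhouse test: WP or EC formulations sprayed onto soil covering sown weed and crop seeds, 600 l/ha water with 0.5% additive, at 320 g/ha and/or 80 g/ha. Damage scored visually after about 3 weeks as % versus untreated control (100% = plants dead).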

POAAN = assay: Herbicidal pre-emergence action 2b (doubly sown, 1280 g/ha); format: in vivo, Poa annua; settings: doubly sown pots, dosage 1280 g/ha, visual scoring after about 3 weeks
How it was run: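 Pots of sandy loam doubly sown with one monocot and one dicot weed species, covered, then soil surface sprayed pre-emergence with WP or EC formulations plus 0.5% additive at 600 l/ha water. Greenhouse-grown about 3 weeks; activity scored visually as % versus untreated controls (100% = dead).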

SMILES	Post-emergence action against ALOMY in % (ALOMY; Dosage 80 g/ha)	Post-emergence action against ALOMY in % (ALOMY; Dosage 320 g/ha)	Post-emergence action against AVEFA in % (AVEFA [1]; Dosage 80 g/ha)	Post-emergence action against AVEFA in % (AVEFA [1]; Dosage 320 g/ha)	Post-emergence action against SETVI in % (SETVI [2]; Dosage 80 g/ha)	Post-emergence action against SETVI in % (SETVI [2]; Dosage 320 g/ha)	Post-emergence action against ABUTH in % (ABUTH; dosage 80 g/ha)	Post-emergence action against ABUTH in % (ABUTH; dosage 320 g/ha)	Post-emergence action against PHBPU in % (PHBPU; dosage 80 g/ha)	Post-emergence action against PHBPU in % (PHBPU; dosage 320 g/ha)	Pre-emergence action against AVEFA in % (AVEFA [3])	Pre-emergence action against DIGSA in % (DIGSA)	Pre-emergence action against SETVI in % (SETVI [4])	Pre-emergence action against MATIN in % (MATIN)	Pre-emergence action against VIOTR in % (VIOTR)	Pre-emergence action against VERPE in % (VERPE)	herbicidal efficacy against harmful plants in the case of pre-emergence treatment (in words) (harmful plants)	Pre-emergence action at 1280 g/ha against POAAN in % (POAAN)
COC(=O)C(C)Oc1nn(-c2cnccn2)c(-c2cncc(F)c2)c1Br (racemic) [Example I-08]	100%	100%	100%	100%	80%	80%	80%	90%	80%	90%	90%	100%	100%	90%	100%	100%	good herbicidal efficacy	–
COC(=O)C(C)Oc1nn(-c2cnccn2)c(-c2ccc(F)c(F)c2)c1Br (racemic) [Example I-16]	90%	100%	90%	100%	80%	90%	–	80%	–	90%	90%	100%	100%	90%	100%	100%	good herbicidal efficacy	100%
COC(=O)COc1nn(-c2cnccn2)c(-c2cncc(F)c2)c1Br [Example I-07]	90%	100%	100%	100%	80%	80%	80%	90%	90%	90%	90%	100%	100%	90%	100%	100%	good herbicidal efficacy	–
COC(=O)COc1nn(-c2cnccn2)c(-c2ccc(F)c(F)c2)c1Br [Example I-15]	80%	80%	90%	90%	90%	90%	80%	80%	90%	90%	80%	100%	100%	100%	100%	100%	good herbicidal efficacy	–
COC(=O)[C@@H](C)Oc1nn(-c2cnccn2)c(-c2cccc(F)c2)c1Br [Example I-20]	80%	90%	90%	90%	80%	90%	80%	90%	–	90%	80%	100%	100%	90%	90%	100%	good herbicidal efficacy	100%
